Test results published in paper PMC11224242, “Structural and functional characterization of cyclic pyrimidine-regulated anti-phage system” (Nature Communications, 2024).
pKd: −log10 of the molar value. “And” between values parts separate entries of the source, which are not always exact repeats. Equal values may be shown once.

Experiments:
EaPycC = target: T1, EaPycC (Elizabethkingia anophelis, UniProt A0AAT8XUA8); assay: LC-MS/MS; assay type: biochemical; settings: 0.5 mM CTP, 1 μM enzyme, 25 °C overnight
T1 construct: full-length, thioredoxin-His tag cut by TEV, extra N-terminal Gly, E. coli BL21(DE3); homodimer
T1 sequence (A0AAT8XUA8 2-342): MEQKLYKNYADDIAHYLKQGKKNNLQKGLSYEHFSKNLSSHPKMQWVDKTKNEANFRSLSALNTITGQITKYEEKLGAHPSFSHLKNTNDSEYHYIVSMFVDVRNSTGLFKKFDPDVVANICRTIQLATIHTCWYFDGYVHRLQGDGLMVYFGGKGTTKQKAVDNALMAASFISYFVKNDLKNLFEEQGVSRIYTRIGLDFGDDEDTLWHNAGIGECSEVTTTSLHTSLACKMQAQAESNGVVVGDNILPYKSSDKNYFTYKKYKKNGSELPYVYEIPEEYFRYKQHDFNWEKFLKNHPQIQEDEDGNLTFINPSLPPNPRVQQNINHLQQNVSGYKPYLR

PsPycTIRCNBD = target: T2, PsPycTIRCNBD (Pseudovibrio sp. W64, UniProt A0ACD6BAZ5); assay: isothermal titration calorimetry; assay type: binding
T2 construct: dimer with cUMP
Source text: isothermal titration calorimetry on PsPycTIRCNBD

[1] = target: SmPycTIRCNBD (Stenotrophomonas maltophilia); assay: isothermal titration calorimetry; assay type: binding
Source text: isothermal titration calorimetry on SmPycTIRCNBD

AnPycC = target: T3, AnPycC (Anabaena sp. CA = ATCC 33047, UniProt A0ACD6BAV8); assay: LC-MS/MS; assay type: biochemical; settings: 0.5 mM UTP, 1 μM enzyme, pH 9.0, 25 °C overnight
T3 construct: full-length, thioredoxin-His tag cut by TEV, extra N-terminal Gly, E. coli BL21(DE3); monomer in solution, dimer in crystal

NpPycTIRCNBD = NpPycTIRCNBD (Novosphingobium pentaromativorans, UniProt A0AAT8XUA9); assay: isothermal titration calorimetry; assay type: binding
Source text: isothermal titration calorimetry on NpPycTIRCNBD

AhPycTIRCNBD = target: T4, AhPycTIRCNBD (Acinetobacter haemolyticus, UniProt N9FD06); assay: isothermal titration calorimetry; assay type: binding
T4 construct: gene F927_00926
Source text: isothermal titration calorimetry on AhPycTIRCNBD

[2] = target: cUMP-bound PycTIR (gel-filtration data); assay: SEC; gel filtration of cUMP-bound PycTIR (Supplementary Fig. 10)

T4 sequence (N9FD06 entry or part of it): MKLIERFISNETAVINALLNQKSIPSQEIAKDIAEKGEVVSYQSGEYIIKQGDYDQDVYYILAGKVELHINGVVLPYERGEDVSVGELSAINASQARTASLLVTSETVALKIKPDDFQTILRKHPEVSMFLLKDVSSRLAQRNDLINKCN
NpPycTIRCNBD, sequence (A0AAT8XUA9 entry or part of it): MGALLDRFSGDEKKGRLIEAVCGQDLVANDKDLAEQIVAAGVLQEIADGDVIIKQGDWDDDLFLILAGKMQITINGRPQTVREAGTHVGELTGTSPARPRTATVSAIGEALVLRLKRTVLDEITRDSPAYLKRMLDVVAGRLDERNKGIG
T3 sequence (A0ACD6BAV8 1-280): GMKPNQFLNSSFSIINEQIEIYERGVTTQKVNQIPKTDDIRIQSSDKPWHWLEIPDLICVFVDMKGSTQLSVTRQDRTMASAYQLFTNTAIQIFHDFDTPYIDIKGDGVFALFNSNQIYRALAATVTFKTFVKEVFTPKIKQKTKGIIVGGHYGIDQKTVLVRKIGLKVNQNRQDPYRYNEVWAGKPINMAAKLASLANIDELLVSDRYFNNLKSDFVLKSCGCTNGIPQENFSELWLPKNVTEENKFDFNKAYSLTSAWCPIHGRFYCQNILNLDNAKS
T2 sequence (A0ACD6BAZ5 entry or part of it): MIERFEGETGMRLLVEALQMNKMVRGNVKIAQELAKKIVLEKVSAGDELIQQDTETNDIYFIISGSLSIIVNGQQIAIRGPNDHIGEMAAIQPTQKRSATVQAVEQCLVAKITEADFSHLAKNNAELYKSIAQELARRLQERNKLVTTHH

## Nc1ccn([C@@H]2O[C@@H]3COP(=O)(O)O[C@H]3[C@H]2O)c(=O)n1 [cCMP]
EaPycC
  LC-MS/MS: an elution peak corresponding to the cCMP product was detected

## O=c1ccn([C@@H]2O[C@@H]3COP(=O)(O)O[C@H]3[C@H]2O)c(=O)[nH]1 [cUMP]
PsPycTIRCNBD
  pKd: 9.00
[1]
  pKd: 6.57
AnPycC
  LC-MS/MS: The production of cUMP by purified AnPycC proteins was confirmed by LC-MS/MS
NpPycTIRCNBD
  pKd: 9.00
AhPycTIRCNBD
  pKd: 6.09

## cUMP-bound PycTIR (gel-filtration data)
[2]
  stoichiometry N: 2 and 4
